Measurements from PubChem BioAssay (NCI).
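Five compound concentrations were applied to cells in 96-well plates for 48 hours; endpoints were derived by simple linear interpolation of the resulting dose-response curve. GI50 marks 50% less growth. TGI denotes the concentration required for complete inhibition of growth.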

How the values were obtained:
Experiment in all cases: growth of human tumour cells (NCI), 48 h
OVCAR-8 ovarian = system: OVCAR-8 ovarian
SF-295 CNS = system: SF-295 CNS
A549 NSCLC = system: A549 NSCLC
COLO 205 colon = system: COLO 205 colon
PC-3 prostate = system: PC-3 prostate
SK-OV-3 ovarian = system: SK-OV-3 ovarian
K-562 leukemia = system: K-562 leukemia
ACHN renal = system: ACHN renal
LOX IMVI melanoma = system: LOX IMVI melanoma
NCI-H460 lung = system: NCI-H460 lung
IGROV1 ovarian = system: IGROV1 ovarian
SR leukemia = system: SR leukemia
OVCAR-3 ovarian = system: OVCAR-3 ovarian
U251 CNS = system: U251 CNS
M14 melanoma = system: M14 melanoma
NCI/ADR-RES ovarian = system: NCI/ADR-RES ovarian
A498 renal = system: A498 renal
SK-MEL-28 melanoma = system: SK-MEL-28 melanoma
CCRF-CEM leukemia = system: CCRF-CEM leukemia
SW-620 colon = system: SW-620 colon
KM12 colon = system: KM12 colon
UACC-257 melanoma = system: UACC-257 melanoma
HS 578T breast = system: HS 578T breast
SF-539 CNS = system: SF-539 CNS
RXF 393 renal = system: RXF 393 renal
DU-145 prostate = system: DU-145 prostate
CAKI-1 renal = system: CAKI-1 renal
HCT-116 colon = system: HCT-116 colon

For `O=C1NC(=S)/C(=C/c2cn(-c3ccccc3)nc2-c2ccccc2)S1`, the TGI (OVCAR-8 ovarian) was 80.8 µM, the GI50 (SF-295 CNS) was 8.61 µM and the TGI (SF-295 CNS) was 32.7 µM. The GI50 (A549 NSCLC) was 6.74 µM, the TGI (A549 NSCLC) was > 100 µM and the GI50 (COLO 205 colon) was 11.9 µM. The TGI (COLO 205 colon) was 32 µM, the GI50 (PC-3 prostate) was 5.76 µM and the TGI (PC-3 prostate) was > 100 µM. For the same molecule, the GI50 (SK-OV-3 ovarian) was 6.82 µM, the TGI (SK-OV-3 ovarian) was 81.2 µM and the GI50 (K-562 leukemia) was 5.38 µM. The TGI (K-562 leukemia) was > 100 µM, the GI50 (ACHN renal) was 8.33 µM and the TGI (ACHN renal) was > 100 µM. For the same molecule, the GI50 (LOX IMVI melanoma) was 13.4 µM, the TGI (LOX IMVI melanoma) was > 100 µM and the GI50 (NCI-H460 lung) was 4.89 µM. The TGI (NCI-H460 lung) was 26.2 µM, the GI50 (IGROV1 ovarian) was 6.46 µM and the TGI (IGROV1 ovarian) was 45.2 µM. It also gave a GI50 (SR leukemia) of 6.65 µM, a TGI (SR leukemia) of 32.3 µM and a GI50 (OVCAR-3 ovarian) of 7.1 µM. For the same molecule, the TGI (OVCAR-3 ovarian) was 27.1 µM, the GI50 (U251 CNS) was 7.49 µM and the TGI (U251 CNS) was > 100 µM. The GI50 (M14 melanoma) was 4.82 µM, the TGI (M14 melanoma) was > 100 µM and the GI50 (NCI/ADR-RES ovarian) was 7.3 µM. For the same molecule, the TGI (NCI/ADR-RES ovarian) was > 100 µM, the GI50 (A498 renal) was 5.6 µM and the TGI (A498 renal) was 41.3 µM. For the same molecule, the GI50 (SK-MEL-28 melanoma) was 5.31 µM, the TGI (SK-MEL-28 melanoma) was > 100 µM and the GI50 (CCRF-CEM leukemia) was 4.35 µM. The TGI (CCRF-CEM leukemia) was > 100 µM, the GI50 (SW-620 colon) was 9.67 µM and the TGI (SW-620 colon) was > 100 µM. The GI50 (KM12 colon) was 5.8 µM, the TGI (KM12 colon) was 40.2 µM and the GI50 (UACC-257 melanoma) was 6.36 µM. The TGI (UACC-257 melanoma) was > 100 µM, the GI50 (HS 578T breast) was 5.73 µM and the TGI (HS 578T breast) was 91.6 µM. The GI50 (SF-539 CNS) was 6.5 µM, the TGI (SF-539 CNS) was 21.8 µM and the GI50 (RXF 393 renal) was 17.1 µM. The TGI (RXF 393 renal) was 71.6 µM, the GI50 (DU-145 prostate) was 9.48 µM and the TGI (DU-145 prostate) was > 100 µM. The GI50 (CAKI-1 renal) was 9.4 µM, the TGI (CAKI-1 renal) was > 100 µM and the GI50 (HCT-116 colon) was 5.57 µM. For the same molecule, the TGI (HCT-116 colon) was > 100 µM.
